According to patent US8758767B2, “Antigens targeted by prevalent pathogennic T cells in type 1 diabetes and uses thereof” (Albert Einstein College of Medicine of Yeshiva University, priority 2003, dated 2014):

Columns and labels:
8.3 CTL = assay: Epitope reconstitution 51Cr-release cytotoxicity assay, peptide-pulsed RMA-S/K^d target cells; type: cell-based, mouse; conditions: peptide-pulsed RMA-S/K^d targets
Protocol: 8.3 CTL were generated by culturing splenocytes from 8.3-NOD mice with mitomycin C-treated NOD splenocytes pulsed with NRP-A7 peptide as described (DiLorenzo et al, 2002). CTL were used in 16 h ^51Cr-release cytotoxicity assays to test for recognition of peptide-pulsed RMA-S/K^d target cells (provided by M. Bevan, University of Washington, Seattle, Wash., USA) at an effector to target ratio of 40:1 as described (DiLorenzo et al., 2002). Synthetic peptides were used at concentrations as indicated in the figures, and 7×10^8, 6×10^8, and 2×10^9 NIT-1-cell-equivalents of peptide were used for assays of first-, second-, and third-dimension HPLC fractions, respectively.

female NOD mice = assay: Repeated peptide treatment of female NOD mice, diabetes development and islet-associated CD8+ T-cells; type: in vivo, mouse; conditions: for avidity of NRP-V7 tetramer binding by islet-associated CD8+ cells of treated mice: NRP-I4 100 μg/injection, NRP-A7 50 μg/injection, vs TUM-treated mice; for protection from diabetes by chronic treatment (discussion summary): intermediate doses NRP-A7, high doses NRP-I4, low or high doses NRP-V7, high doses IGRP206-214; for absolute number of NRP-V7-reactive T-cells in the islets: NRP-A7 50 μg/injection vs. TUM-treated mice; for T-cell responses against IGRP epitopes of islet-derived CD8+ T-cells of treated mice: for IGRP206-214 treatment: other IGRP epitopes
Protocol: Cohorts of 3-to-4 week-old female NOD mice were injected with 1-100 μg of peptide in PBS intraperitoneally. This was repeated every 2 weeks until the 7-8th week, and every 3 weeks thereafter. Mice were monitored for development of hyperglycemia until at least the 28th week of age. The 8.3-CD8+ T-cell tolerogenic activity of APLs was determined by treating 8-15 wk-old 8.3-NOD mice with one i.p. injection of 100 μg of peptide. […] Mice were sacrificed a week after treatment, and their spleens analyzed for presence of 8.3-CD8+ T-cells by flow cytometry.
We next investigated whether the anti-diabetogenic activity of the above APLs was a function of “avidity”, as defined not only by the affinity of individual peptide/MHC complexes for specific TCRs, but also by the absolute number of peptide/MHC complexes that are available for recognition (i.e. dose of peptide). This was done by treating cohorts of female NOD mice with repeated injections of TUM (negative control), NRP-I4, NRP-A7 and NRP-V7 (in PBS) over a wide dose range, and by following the mice for development of diabetes (FIG. 7A, top). Starting at 3-4 weeks of age, mice received one injection of peptide i.p. every 2 (first three doses) or 3 weeks after initiation of treatment. Mice were sacrificed at diabetes onset or at the end of the follow-up period (28-32 weeks), to investigate the effects of treatment on the size and tetramer-binding avidity of the islet-associated IGRP206-214-reactive CD8+ T-cell subpopulation (FIG. 7A, bottom).

8.3-CD8+ T-cells = assay: Proliferation and cytokine secretion of naive splenic 8.3-CD8+ T-cells with peptide-pulsed NOD splenocytes; type: cell-based, mouse; conditions: for agonistic activity on 8.3-CD8+ T-cells: FIG. 5, peptide 0.01-1 μM
Protocol: Naïve or NRP-A7-differentiated (see below) splenic CD8+ T-cells from 8.3-NOD mice (2×10^4/well) were incubated, in duplicate, with peptide-pulsed (0.01, 0.1 and 1 μM), γ-irradiated (3,000 rad) NOD splenocytes (10^5/well) for 3 days at 37° C. in 5% CO2. Cultures were pulsed with 1 μCi of (^3H)-thymidine during the last 18 hours of culture and harvested.
(§1) Naïve splenic CD8+ T-cells from 8.3-NOD mice (2×10^4/well) were incubated with peptide-pulsed (0.001, 0.01, 0.1, 1 and/or 10 μM) γ-irradiated NOD splenocytes (10^5/well) in 96-well plates for 48 hours at 37° C. Short-term islet-derived T-cell lines from peptide-treated or unmanipulated NOD mice (adjusted at 2×10^4 CD8+ T-cells/well) were tested the same way, but using 10 μM of peptide. The supernatants (100 μl/well) were assayed in duplicate for IL-2, IL-4, and/or IFN-γ content by ELISA using commercially available kits (Genzyme Diagnostics, Cambridge, Mass.).

AI15.F5 TCR = assay: TCR transfectant peptide recognition, IL-2 release (58 α−β− cells, RMA-S/K^d presenters); type: cell-based, mouse; conditions: FIG. 2
Text: (§2) T cell receptors from the previously isolated NOD-derived β cell-autoreactive class I MHC-restricted T cell clones AI4, AI12.B1.1, AI12.B1.2, AI12.B1.3, AI15.A10, AI15.F5 (DiLorenzo et al., 1998), and 8.3 (Verdaguer et al., 1997) were expressed in the TCR^− T cell hybridoma 58α^−β^− (engineered to express the TCR ζ chain and CD8αβ and provided by H.-C. Chang, Dana Farber, Boston, Mass., USA) as described (Serreze et al., 2001). TCR expression was verified by flow cytometric analysis of growing clones using an antibody to CD3ε (145-2C11). RMA-S/K^d cells incubated overnight at 28° C. were used to present exogenously added synthetic peptides at concentrations as indicated in the figures. Peptide recognition by the TCR transfectants was measured by IL-2 production as previously described (Serreze et al., 2001).

AI12.B1.3 TCR = assay: as above; type: cell-based, mouse; conditions: FIG. 2
Text: as §2

NOD female mice = assay: Protection of NOD mice from type 1 diabetes (Example 2); type: in vivo, mouse; conditions: for mice that developed diabetes: 100 micrograms peptide intraperitoneally from 3.5 weeks of age, read at ~25 weeks-old
Protocol: Ten NOD female mice were treated with 100 micrograms of IGRP206-214 peptide (in phosphate-buffered saline) intraperitoneally, starting at 3.5 weeks of age. Forty mice were used as controls. Each control mouse was treated with the TUM peptide ([…] NO:15). The mice received one injection of peptide every two weeks for the first three injections, and then one injection every three weeks thereafter. At 25 weeks-old, two (20%) of the IGRP206-214 mice developed diabetes, vs. 26 control mice ( 65%). […] There were no significant differences in interferon-γ production vs. cells stimulated with the negative control peptide TUM. In one of these two mice, the islets contained T-cells that responded to two IGRP peptides other than IGRP206-214.

H-2K^d = target: T1, H-2K^d (Mus musculus, UniProt P01902); assay: H-2K^d stabilization assay on RMA-S/K^d cells (Example 1); type: binding; conditions: FIG. 3, mean fluorescence intensity of H-2K^d
T1 construct: expressed in transfected cells; host or cells: RMA-S/K^d cells
T1 sequence (P01902 22-368): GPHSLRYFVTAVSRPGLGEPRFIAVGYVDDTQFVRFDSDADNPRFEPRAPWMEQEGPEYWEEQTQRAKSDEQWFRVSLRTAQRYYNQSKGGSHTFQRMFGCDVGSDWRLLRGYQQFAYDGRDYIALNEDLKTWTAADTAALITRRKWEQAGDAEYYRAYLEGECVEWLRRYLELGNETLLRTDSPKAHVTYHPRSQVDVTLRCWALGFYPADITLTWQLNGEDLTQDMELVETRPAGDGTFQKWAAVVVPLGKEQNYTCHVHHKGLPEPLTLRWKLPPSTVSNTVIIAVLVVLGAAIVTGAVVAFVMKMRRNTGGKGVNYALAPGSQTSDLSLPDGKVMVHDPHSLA
T1 sequence (P01887 21-119 partner): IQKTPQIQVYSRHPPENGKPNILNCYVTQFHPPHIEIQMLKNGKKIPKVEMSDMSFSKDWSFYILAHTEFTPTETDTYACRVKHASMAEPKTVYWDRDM
Protocol: RMA-S/K^d cells, cultured overnight at 28° C., were pulsed with peptides in complete DMEM for 1 h at 28° C., incubated at 37° C. for 3 h, washed, stained with anti-H-2K^d monoclonal antibody SF1-1.1, counter-stained with FITC-conjugated polyclonal goat anti-mouse antibody, and analyzed by flow cytometry. Data were calculated by subtracting mean fluorescence intensity of H-2K^d on non-peptide-pulsed cells from that on peptide-pulsed cells.

[1] = system: CD8+ cells derived from pancreatic islets of wild-type NOD mice; assay: Tetramer staining and avidity of NOD islet-derived CD8+ T-cells (Example 3); type: cell-based, mouse; conditions: FIG. 9B, at least some animals
Protocol: Tetramers were prepared and used as described in (Amrani et al., 2000). Hand-picked pancreatic islets from individual mice were cultured in complete media supplemented with 0.5 U/ml of Takeda rhIL-2 for 7-9 days. T-cells (10^6 per 20 μl) were then stained for 45 minutes on ice in 20 μl of wash media (0.2% sodium bicarbonate, 0.1% sodium azide and 2% FBS in RPMI-1640) containing anti-CD8-FITC (clone YTS169.4; 0.5 μg) and tetramer (85.5 nM). After washing, the cells were resuspended in wash media and analyzed with a flow cytometer (Becton Dickinson). For the analysis of tetramer staining at equilibrium, T-cells were stained for 2 hours at room temperature with 20 μl of wash media (0.2% sodium bicarbonate, 0.1% sodium azide and 2% FBS in RPMI-1640) containing anti-CD8α-FITC (clone YTS169.4; 0.5 μg) and different concentrations of tetramers (8.55, 17.1, 42.75 and 85.5 nM). After washing, cells were resuspended in 100 μl of wash media, fixed in 0.4% paraformaldehide and analyzed with a flow cytometer. The apparent Kd values were determined by plotting the negative reciprocal of the slope of the line fit to Scatchard plots of fluorescence units (median of CD8+ population tetramer staining)/nM versus fluorescence units.

[2] = system: CD8+ cells propagated from islets of NOD mice; assay: IFN-γ secretion by islet-derived CD8+ T-cells in response to IGRP peptides; type: cell-based, mouse; conditions: peptide 10 μM, pre-diabetic or acutely diabetic NOD mice
Text: Islet-derived CD8+ T-cells from peptide-treated or unmanipulated NOD mice were generated by culturing pancreatic islets in complete media (CM: RPMI 1640 media containing 10% fetal bovine serum), containing 0.5 U/ml Takeda rhIL-2 (10-50 islets/well in 24-well plates). The in vivo-activated, IL-2R+ lymphocytes migrating from islets into the culture media were used in functional assays within 6-9 days of islet isolation (Amrani et al., 2000; Anderson et al., 1999).
as §1

[3] = IFN-γ secretion, Table II, FIG. 10A

## KYCLITIFL [G6Pase, reference compound]
8.3 CTL
  recognition by 8.3 CTL: not recognized by 8.3 CTL

## KYNIANWFL [NRP-I4]
Female NOD mice; 100 μg/injection
  anti-diabetogenic activity: highly anti-diabetogenic
Female NOD mice; <20 μg/injection
  anti-diabetogenic activity: not protective at all
Female NOD mice
  avidity of NRP-V7 tetramer binding by islet-associated CD8+ cells of treated mice: significantly lower avidity
  protection from diabetes by chronic treatment (discussion summary): near complete protection from diabetes
8.3-CD8+ T-cells; FIG. 5
  triggering IFN-γ secretion by naive 8.3-CD8+ T-cells: quite efficient
8.3-CD8+ T-cells
  agonistic activity on 8.3-CD8+ T-cells: partial agonist
8.3-CD8+ T-cells; FIG. 5, proliferation, IL-2
  inducing other responses of naive 8.3-CD8+ T-cells: significantly less efficient than NRP-A7

## KYNKANAFL [NRP-A7]
AI15.F5 TCR
  recognition by AI15.F5 (IL-2 release): did not recognize
AI12.B1.3 TCR
  recognition by AI12.B1.3 (IL-2 release): recognized
Female NOD mice; 50 μg/injection
  anti-diabetogenic activity: protected mice from diabetes
Female NOD mice; 100 μg/injection
  anti-diabetogenic activity: ineffective
  percentages and absolute numbers of NRP-V7-reactive CD8+ cells in the islets: significantly reduced numbers
Female NOD mice
  absolute number of NRP-V7-reactive T-cells in the islets: 0.6×10^5±0.3
  avidity of NRP-V7 tetramer binding by islet-associated CD8+ cells of treated mice: accumulation of low avidity IGRP206-214-reactive CD8+ T-cells within islets
  protection from diabetes by chronic treatment (discussion summary): near complete protection from diabetes
8.3-CD8+ T-cells
  agonistic activity on 8.3-CD8+ T-cells: agonist

## KYQAVTTTL [TUM, reference compound]
NOD female mice
  mice that developed diabetes: ~65%
Female NOD mice; [3]
  T-cell responses against IGRP epitopes of islet-derived CD8+ T-cells of treated mice: did not significantly increase
Female NOD mice
  absolute number of NRP-V7-reactive T-cells in the islets: 1×10^5±0.3

## LYLVCGERG [INS B15-23]
H-2K^d
  binding to H-2K^d: barely detectable even at the highest peptide concentration tested

## LYLVCGERI [INS-I9]
H-2K^d
  binding to H-2K^d: improved binding to H-2K^d

## SFCKSASIP [peptide 72, text numbering of the IGRP library]
[1]
  presence of peptide-reactive CD8+ T-cells in islets by tetramers: confirmed the presence
[2]
  mice with islet CD8+ T-cells responding to the peptide (IFN-γ secretion): a significant number of mice also mounted responses

## VYLKTNVFL [IGRP206-214]
NOD female mice
  mice that developed diabetes: 20%
NOD female mice; NRP-V7/K^d tetramer staining
  IGRP206-214-reactive T-cells in islets of treated mice that developed diabetes: did not have IGRP206-214-reactive T-cells in islets
AI15.F5 TCR
  recognition by AI15.F5 (IL-2 release): responded
AI12.B1.3 TCR
  recognition by AI12.B1.3 (IL-2 release): recognized
8.3 CTL
  recognition by 8.3 CTL: is the natural β cell peptide recognized by 8.3
Female NOD mice; 75-100 μg/injection
  age at onset of diabetes: delayed
  incidence of diabetes: did not significantly reduce
Female NOD mice; 75-100 μg/injection, flow cytometry and functional assays
  intra-islet IGRP206-214-reactive CD8+ T-cell subpopulation: near complete deletion
Female NOD mice; [3]
  anti-IGRP206-214 response of islet-derived CD8+ T-cells of treated mice: reduced both the frequency and magnitude
  T-cell responses against IGRP epitopes of islet-derived CD8+ T-cells of treated mice: increased the frequency and magnitude
Female NOD mice
  protection from diabetes by chronic treatment (discussion summary): only afforded marginal protection from disease
H-2K^d
  binding to H-2K^d: good MEC binding
[2]
  mice with islet CD8+ T-cells responding to the peptide (IFN-γ secretion): most mice

## YLKTNVFLF [IGRP207-215]
[2]
  mice with islet CD8+ T-cells responding to the peptide (IFN-γ secretion): most mice
8.3-CD8+ T-cells; data not shown
  cross-reactivity with IGRP206-214, ability to elicit 8.3-CD8+ T-cell responses: cross-reactive with IGRP206-214
